Data published in patent US9371290B2, “Pyridazinone compounds” (BIOTIE THERAPIES CORPORATION, priority 2011, dated 2016).

Row | SMILES | melting point
1 | CC(C)Nc1cc(=O)n(-c2ccccc2)cc1-c1nc[nH]n1 [Compound 54, 4-isopropylamino-1-phenyl-5-(1H-1,2,4-triazol-3-yl)-pyridin-2(1H)-one] | 307 to 310 °C
2 | Cn1cnc(-c2nn(-c3ccccc3)c(=O)cc2Oc2ccccc2)n1 [Compound 41] | 235 to 237 °C
3 | N#CCNc1cc(=O)n(-c2ccc(Cl)cc2)nc1-c1nc[nH]n1 [Compound 79] | 303 to 306 °C
4 | CN(C)c1ccc(Nc2cc(=O)n(-c3cccc(Cl)c3)nc2-c2nc[nH]n2)cc1 [Compound 72] | 243 to 245 °C
5 | COc1cc(=O)n(-c2ccccc2)nc1-c1nc[nH]n1 [Compound 31] | 235 to 240 °C
6 | N=CNNC(=O)c1nn(-c2ccccc2)c(=O)cc1Sc1ccccc1 [Compound 8, N^2-iminomethyl-6-oxo-4-phenylsulfanyl-1-phenyl-1,6-dihydropyridazin-3-carbohydrazide] | 236 to 238 °C
7 | C#CCN(C)c1cc(=O)n(-c2ccc(Cl)cc2)nc1-c1nc[nH]n1 [Compound 82] | 210 to 212 °C
8 | O=c1cc(Oc2ccccc2)c(-c2cccc(C(F)(F)F)c2)nn1-c1ccccc1 [Compound 21, 5-phenoxy-2-phenyl-6-[(3-trifluoromethyl)phenyl]pyridazin-3(2H)-one] | 146 to 148 °C
9 | O=c1cc(N2CCCC2)c(-c2nc[nH]n2)nn1-c1ccccc1 [Compound 44] | 301 to 303 °C
10 | Cc1nc(-c2nn(-c3ccccc3)c(=O)cc2Oc2ccccc2)n[nH]1 [Compound 51, 5-phenoxy-2-phenyl-6-(5-methyl-1H-1,2,4-triazol-3-yl)-3(2H)-pyridazinone] | 245 to 247 °C
11 | CCCc1cn(-c2cc(=O)n(-c3ccccc3)nc2C(=O)OC)nn1 [Compound 24] | 146 to 148 °C
12 | O=c1cc(Nc2ccccc2)c(-c2nc[nH]n2)nn1-c1cccc(F)c1 [Compound 69] | 233 to 235 °C
13 | NNC(=O)c1nn(-c2ccccc2)c(=O)cc1Oc1ccccc1 [Compound 76] | 80 to 82 °C
14 | O=c1cc(Oc2ccccc2)c(-c2cccnc2)nn1-c1ccccc1 [Compound 9] | 155 to 157 °C
15 | COc1ccc(-n2nc(-c3nc[nH]n3)c(Oc3ccccc3)cc2=O)cc1 [Compound 26] | 284 to 286 °C
16 | O=c1cc(Oc2ccccc2)c(-c2nc[nH]n2)nn1-c1cccc(C(F)(F)F)c1 [Compound 33] | 257 to 258 °C
17 | O=c1cc(O)c(-c2nc[nH]n2)nn1-c1ccccc1 [Compound 3] | 218 to 220 °C
18 | CN1CCC(Nc2cc(=O)n(-c3ccc(Cl)cc3)nc2-c2nc[nH]n2)CC1 [Compound 67] | 270 to 272 °C
19 | O=c1cc(Oc2ccc(Cl)cc2)c(-c2nc[nH]n2)nn1-c1ccccc1 [Compound 15] | 235 to 240 °C
20 | Cn1nccc1-c1nn(-c2ccccc2)c(=O)cc1Oc1ccccc1 [Compound 1] | 118 to 119 °C
21 | O=c1cc(Oc2ccccc2)c(-c2nc[nH]n2)nn1-c1ccccc1F [Compound 45] | 265 to 267 °C
22 | O=c1cc(Nc2ccc(N3CCNCC3)cc2)c(-c2nc[nH]n2)nn1-c1ccc(Cl)cc1 [Compound 80, 2-(4-chlorophenyl)-5-{[4-(4-piperazine-1-yl)phenyl]amino}-6-(1H-1,2,4-triazol-3-yl)-3(2H)-pyridazinone] | 212 to 224 °C
23 | [N-]=[N+]=Nc1cc(=O)n(-c2ccccc2)nc1C1=NCCN1 [Compound 47, 5-Azido-6-(4,5-dihydro-1H-imidazol-2-yl)-2-phenylpyridazin-3(2H)-one] | 238 to 240 °C
24 | CN1CCN(c2cc(=O)n(-c3ccccc3)nc2C(N)=O)CC1.Cl | 248 to 250 °C
25 | Cc1noc(C)c1-c1nn(-c2ccccc2)c(=O)cc1Oc1ccccc1 [Compound 19] | 122 to 124 °C
26 | Nc1ccc(Nc2cc(=O)n(-c3ccc(Cl)cc3)nc2-c2nc[nH]n2)cc1 [Compound 66] | 278 to 281 °C
27 | Cc1ccsc1-c1nn(-c2ccccc2)c(=O)cc1Oc1ccccc1 [Compound 20] | 212 to 214 °C
